Literature values as cited in patent publication US10278642B2, “Methods of assessing metabolic function” (Aurum Biosciences Limited, priority 2012, dated 2019).

Conditions: by 100 ml of the liquid at standard pressure and temperature

oxygen dissolved: 49 mL
Structure (SMILES): FC1(F)C(F)(F)C(F)(F)C2(F)C(F)(F)C(F)(F)C(F)(F)C(F)(F)C2(F)C1(F)F (stereo not shown) [perfluorodecalin]
